Source: patent US20130252951A1, “7-HYDROXY-PYRAZOLO[1,5-A] PYRIMIDINE COMPOUNDS AND THEIR USE AS CCR2 RECEPTOR ANTAGONISTS” (Proximagen Limited, priority 2010, published 2013)

target: human CCR2 (Homo sapiens, UniProt P41597); assay: CCR2 functional calcium assay (FLIPR calcium flux, hMCP-1 challenge); format: cell-based; set-up: expressed in transfected cells; host or cells: HEK293 EBNA cells; conditions: HEK293 EBNA cells transfected with human CCR2, hMCP-1 challenge; read-out: Functional CCR2 fKi
Description: The CCR2 receptor couples through the Gi/Gq signaling pathway and results in activation of calcium mobilization. The functional activity of test compounds was routinely tested by measuring the ability of compounds to antagonize CCR2 activity in a dose dependent manner, in HEK293 EBNA cells transfected with the human CCR2 receptor (hMCP-1 challenge), using a calcium flux Fluorescent Imaging Plate Reader FLIPR assay. Non-transfected HEK293 EBNA cells were used as control of non-specific response.
Briefly, test compounds were dissolved in dimethyl sulfoxide (DMSO) to a concentration of 10 mM and stored in matrix screenmate racks. The required amount of compound was transferred to 96-well compound plates on the day of assay and diluted in assay buffer to the required final concentration; dose-response measurements were assayed by making 1:3 serial dilutions to produce 10 point curves. The compounds were then transferred to 384-well assay plates ready for use. Top concentrations were adjusted depending on the potency of the compounds with a typical concentration range of 30 μM to 0.5 nM being used. The assay buffer used was HBSS buffer supplemented with 20 mM HEPES and 0.1% BSA, pH7.4. The loading/wash buffers were the same as the assay buffer.
Cells were suspended in culture medium at a density of 10000 cells/50 μl (the cell culture media composition was DMEM high glucose supplemented with 10% dialyzed FBS, 250 μg/ml Geneticin, and 400 μg/ml Hygromycin B), transferred to 384-well black/clear Costar plates (Costar #3712) (50 μl/well) and incubated at 37° C., in a 5% CO2/95% air humidified incubator for 16 h. The cells were washed with assay buffer at 37° C. using the Biotek ELx 405, washing 3 times, leaving 20 μl buffer in the well. 20 μl Fluo-4 (Fluo-4 stock solution (1 mM) was prepared by dissolving one vial of Fluo-4 (50 μg) in 45 μl of pluronic acid (240 mg/ml in DMSO). This stock solution of Fluo-4 was then diluted 250 times with loading buffer to give a Fluo-4 concentration of 4 μM. The dye solution (used within 2 h and kept away from light) was added to each well using a repeating multichannel pipette; the cells were then incubated at 37° C. for 60 min. Following the incubation, cells were washed in assay buffer at 37° C. using the Biotek ELx 405, washing 3 times, leaving 40 μl in each well and incubated for 10 min at 37° C. before use. A combined agonist/antagonist protocol was used. Compound (antagonist) was added to the cell plate using the FLIPR. Basal fluorescence was recorded every second for 10 seconds prior to compound addition (10 μl) and fluorescence recorded every second for 1 minute then every 6 seconds for a further 1 minute. Agonist (MCP-1) was then added using the FLIPR and fluorescence recorded as described above.
The positive control (agonist) was human recombinant MCP-1 which was stored as a stock concentration of 10 μM in distilled water and stored at −20° C. (maximal response: 30 nM; EC50 dose: 3-5 nM). The reference compound (antagonist) was RS102895 which was used as a 10 mM DMSO solution and stored at −20° C.
FLIPR responses were measured as peak minus basal fluorescence intensity and were expressed as a percentage of EC50 MCP-1 challenge. Curve-fitting and parameter estimation were carried out using GraphPad Prism 4.0 (GraphPad Software Inc., San Diego, Calif.).

Sequence of human CCR2 (P41597 whole entry): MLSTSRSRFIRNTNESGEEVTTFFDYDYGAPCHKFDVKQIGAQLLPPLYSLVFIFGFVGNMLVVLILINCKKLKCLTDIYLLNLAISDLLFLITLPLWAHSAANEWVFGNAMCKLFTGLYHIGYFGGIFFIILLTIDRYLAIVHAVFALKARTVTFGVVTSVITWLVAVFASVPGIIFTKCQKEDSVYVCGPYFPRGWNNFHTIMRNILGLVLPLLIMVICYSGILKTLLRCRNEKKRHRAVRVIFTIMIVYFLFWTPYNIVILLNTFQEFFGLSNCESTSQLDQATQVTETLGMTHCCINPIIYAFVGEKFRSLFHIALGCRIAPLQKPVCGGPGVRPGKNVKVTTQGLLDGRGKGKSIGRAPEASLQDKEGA

`Oc1c(Cc2ccc(Cl)cc2)c(C2CCC2)nc2ccnn12` [Example 44, 6-[(4-Chlorophenyl)methyl]-5-cyclobutyl-pyrazolo[1,5-a]pyrimidin-7-ol] and `Oc1c(Cc2ccc(F)c(Cl)c2)c(C2CCC2)nc2ccnn12` [Example 46, 6-[(3-Chloro-4-fluorophenyl)methyl]-5-cyclobutylpyrazolo[1,5-a]pyrimidin-7-ol] cannot be ordered by Ki: < 10 nM for the first, < 10 nM for the second.

`Oc1c(Cc2ccc(F)c(F)c2)c(C2CCC2)nc2ccnn12` [Example 45, 5-Cyclobutyl-6-[(3,4-difluorophenyl)-methyl]pyrazolo[1,5-a]pyrimidin-7-ol] and `Oc1c(Cc2ccc(F)c(C(F)(F)F)c2)c(C2CCC2)nc2ccnn12` [Example 47, 5-Cyclobutyl-6-{[4-fluoro-3-(trifluoro-methyl)phenyl]methyl}pyrazolo[1,5-a]-pyrimidin-7-ol] cannot be ordered by Ki: < 10 nM for the first, < 10 nM for the second.

`Oc1c(Cc2cc(F)cc(C(F)(F)F)c2)c(C2CCC2)nc2ccnn12` [Example 48, 5-Cyclobutyl-6-{[3-fluoro-5-(trifluoro-methyl)phenyl]methyl}pyrazolo[1,5-a]-pyrimidin-7-ol] and `Oc1c(Cc2cc(F)c(F)c(F)c2)c(C2CCC2)nc2ccnn12` [Example 49, 5-Cyclobutyl-6-[(3,4,5-trifluorophenyl)-methyl]pyrazolo[1,5-a]pyrimidin-7-ol] cannot be ordered by Ki: < 10 nM for the first, < 10 nM for the second.

`Oc1c(Cc2ccc(Cl)c(Cl)c2)c(C2CCC2)nc2ccnn12` [Example 50, 5-Cyclobutyl-6-[(3,4-dichlorophenyl)-methyl]pyrazolo[1,5-a]pyrimidin-7-ol] and `Oc1c(Cc2ccc(Cl)c(Cl)c2)c(C2CCCO2)nc2ccnn12` (stereo not shown) [Example 56, 6-[(3,4-Dichlorophenyl)methyl]-5-(oxolan-2-yl)pyrazolo[1,5-a]pyrimidin-7-ol] cannot be ordered by Ki: < 10 nM for the first, < 10 nM for the second.

`COCc1nc2ccnn2c(O)c1Cc1ccc(Cl)cc1` [Example 51, 6-[(4-Chlorophenyl)methyl]-5-(methoxy-methyl)pyrazolo[1,5-a]pyrimidin-7-ol] and `COCCc1nc2ccnn2c(O)c1Cc1ccc(Cl)cc1` [Example 54, 6-[(4-Chlorophenyl)methyl]-5-(2-methoxyethyl)pyrazolo[1,5-a]pyrimidin-7-ol] fall in the same range of Ki: 10 to 100 nM for the first, 10 to 100 nM for the second.

First: COCc1nc2ccnn2c(O)c1Cc1ccc(Cl)c(F)c1 [Example 52, 6-[(4-Choro-3-fluorophenyl)methyl]-5-(methoxymethyl)pyrazolo[1,5-a]pyrimidin-7-ol]
Second: COCc1nc2ccnn2c(O)c1Cc1ccc(Cl)c(Cl)c1 [Example 53, 6-[(3,4-Dichlorophenyl)methyl]-5-(methoxymethyl)pyrazolo[1,5-a]pyrimidin-7-ol]
The Ki of the first is higher: 10 to 100 nM for the first, < 10 nM for the second. The second binds more tightly here.

`Oc1c(Cc2ccc(Cl)c(Cl)c2)c(C(F)(F)F)nc2ccnn12` [Example 55, 6-[(3,4-Dichlorophenyl)methyl]-5-(trifluoromethyl)pyrazolo[1,5-a]pyrimidin-7-ol] and `CCOC(=O)c1nc2ccnn2c(O)c1Cc1ccc(Cl)c(F)c1` [Example 74, Ethyl 6-[(4-chloro-3-fluorophenyl)methyl]-7-hydroxy pyrazolo[1,5-a]pyrimidine-5-carboxylate] cannot be ordered by Ki: < 10 nM for the first, < 10 nM for the second.

Compared with `Cc1nc2c(C)cnn2c(O)c1Cc1ccc(Cl)cc1` [Example 57, 6-[(4-Chlorophenyl)methyl]-3,5-dimethyl-pyrazolo[1,5-a]pyrimidin-7-ol], `Cc1nc2c(Br)cnn2c(O)c1Cc1ccc(Cl)cc1` [Example 58, 3-Bromo-6-[(4-chlorophenyl)methyl]-5-methylpyrazolo[1,5-a]pyrimidin-7-ol] is lower in Ki: 100 to 1000 nM for the first, 10 to 100 nM for the second.

First: Cc1nc2c(C#N)cnn2c(O)c1Cc1ccc(Cl)cc1 [Example 59, 6-[(4-Chlorophenyl)methyl]-7-hydroxy-5-methylpyrazolo[1,5-a]pyrimidine-3-carbonitrile]
Second: COC(=O)c1nc2ccnn2c(O)c1Cc1cccc(Cl)c1 [Example 81, Methyl 6-[(3-chlorophenyl)methyl]-7-hydroxypyrazolo[1,5-a]pyrimidine-5-carboxylate]
The Ki of the first is higher: 100 to 1000 nM for the first, < 10 nM for the second. The second binds more tightly here.

First: Cc1nc2ccnn2c(O)c1Oc1ccc(Cl)c(Cl)c1 [Example 60, 6-(3,4-Dichlorophenoxy)-5-methyl-pyrazolo[1,5-a]pyrimidin-7-ol]
Second: CC(C)c1nc2ccnn2c(O)c1Oc1ccc(Cl)c(Cl)c1 [Example 68, 6-(3,4-diChlorophenoxy)-5-(propan-2-yl)-pyrazolo[1,5-a]pyrimidin-7-ol]
The Ki of the first is higher: 10 to 100 nM for the first, < 10 nM for the second.

First: CCc1nc2ccnn2c(O)c1Oc1cccc(C(F)(F)F)c1 [Example 61, 5-Ethyl-6-[3-(trifluoromethyl)phenoxy] pyrazolo[1,5-a]pyrimidin-7-ol]
Second: CCc1nc2ccnn2c(O)c1Oc1ccc(F)c(F)c1 [Example 62, 6-(3,4-Difluorophenoxy)-5-ethyl-pyrazolo[1,5-a]pyrimidin-7-ol]
The Ki of the first is higher: 100 to 1000 nM for the first, < 10 nM for the second.

First: CCc1nc2ccnn2c(O)c1Oc1ccc(F)c(Cl)c1 [Example 63, 6-(3-Chloro-4-fluorophenoxy)-5-ethyl-pyrazolo[1,5-a]pyrimidin-7-ol]
Second: CC(C)c1nc2ccnn2c(O)c1Oc1ccc(Cl)c(F)c1 [Example 67, 6-(4-Chloro-3-fluorophenoxy)-5-(propan-2-yl)pyrazolo[1,5-a]pyrimidin-7-ol]
The Ki of the first is higher: 10 to 100 nM for the first, < 10 nM for the second. The second binds more tightly here.

Compared with `CC(C)c1nc2ccnn2c(O)c1Oc1ccc(Br)cc1` [Example 66, 6-(4-Bromophenoxy)-5-(propan-2-yl)-pyrazolo[1,5-a]pyrimidin-7-ol], `CCOC(=O)c1nc2ccnn2c(O)c1Oc1ccc(Cl)c(F)c1` [Example 75, Ethyl 6-(4-chloro-3-fluorophenoxy)-7-hydroxypyrazolo[1,5-a]pyrimidine-5-carboxylate] is higher in Ki: < 10 nM for the first, 10 to 100 nM for the second.

First: COC(=O)c1nc2ccnn2c(O)c1Cc1cccc(F)c1 [Example 69, Methyl 6-[(3-fluorophenyl)methyl]-7-hydroxypyrazolo[1,5-a]pyrimidine-5-carboxylate]
Second: CCOC(=O)c1nc2ccnn2c(O)c1Cc1cccc(F)c1 [Example 73, Ethyl 6-[(3-fluorophenyl)methyl]-7-hydroxypyrazolo[1,5-a]pyrimidine-5-carboxylate]
The Ki of the first is lower: 10 to 100 nM for the first, 100 to 1000 nM for the second.

`CCOC(=O)c1nc2ccnn2c(O)c1Cc1cccc(C(F)(F)F)c1` [Example 71, Ethyl 7-hydroxy-6-{[3-(trifluoromethyl)-phenyl]methyl}pyrazolo[1,5-a]pyrimidine-5-carboxylate] and `CCOC(=O)c1nc2ccnn2c(O)c1Oc1ccc(Cl)c(Cl)c1` [Example 76, Ethyl 6-(3,4-dichlorophenoxy)-7-hydroxy-pyrazolo[1,5-a]pyrimidine-5-carboxylate] fall in the same range of Ki: 10 to 100 nM for the first, 10 to 100 nM for the second.

`Cc1nc2ccnn2c(O)c1Sc1cccc(F)c1` [Example 77, 6-[(3-Fluorophenyl)sulfanyl]-5-methyl-pyrazolo[1,5-a]pyrimidin-7-ol] and `Cc1nc2ccnn2c(O)c1Nc1cccc(F)c1` [Example 78, 6-[(3-Fluorophenyl)amino]-5-methylpyrazolo[1,5-a]pyrimidin-7-ol] fall in the same range of Ki: 100 to 1000 nM for the first, 100 to 1000 nM for the second.

`CCN(c1cccc(F)c1)c1c(C)nc2ccnn2c1O` [Example 79, 6-[Ethyl(3-fluorophenyl)amino]-5-methylpyrazolo[1,5-a]pyrimidin-7-ol] and `Cc1nc2ccnn2c(O)c1N(C)c1cccc(F)c1` [Example 80, 6-[(3-Fluorophenyl)(methyl)amino]-5-methylpyrazolo[1,5-a]pyrimidin-7-ol] fall in the same range of Ki: 100 to 1000 nM for the first, 100 to 1000 nM for the second.
